Test results as given in patent publication US8278345B2, “Inhibitors of glutaminyl cyclase” (Probiodrug AG, priority 2006, dated 2012).

Biological target: hQC (Homo sapiens, UniProt Q16769)
Assay: Inhibitor assay for glutaminyl cyclase activity (fluorometric, H-Gln-βNA / H-Gln-AMC)
Type: biochemical
Details: read-out: IC50
In short: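 Coupled fluorometric assay at 30 °C with pyroglutamyl aminopeptidase, in Tris/HCl pH 8.0 with EDTA, substrate H-Gln-βNA (0.2 mM; ex/em 320/410 nm) or H-Gln-AMC (ex/em 380/460 nm), initiated by QC. Screening: 4 mM inhibitor, substrate at 1 KM; Ki from progress curves fitted to competitive inhibition.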

hQC, sequence (Q16769 29-361): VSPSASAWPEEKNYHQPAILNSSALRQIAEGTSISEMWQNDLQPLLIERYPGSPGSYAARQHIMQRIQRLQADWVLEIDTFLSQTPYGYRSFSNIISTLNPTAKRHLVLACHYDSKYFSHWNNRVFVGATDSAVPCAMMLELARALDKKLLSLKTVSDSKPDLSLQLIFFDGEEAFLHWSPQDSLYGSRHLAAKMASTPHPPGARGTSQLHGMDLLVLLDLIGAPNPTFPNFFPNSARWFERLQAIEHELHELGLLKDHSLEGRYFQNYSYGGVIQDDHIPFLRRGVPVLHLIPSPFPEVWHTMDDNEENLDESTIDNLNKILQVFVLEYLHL

SMILES | IC50
O=C1C(O)=C(c2ccccc2)C(c2ccccc2)N1CCCn1ccnc1 (centres unmarked) [Compound 92, 3-Hydroxy-1-(3-imidazol-1-yl-propyl)-4,5-diphenyl-1,5-dihydro-pyrrol-2-one] | 3100 nM
CCC1=C(O)C(=O)N(c2ccc3[nH]cnc3c2)C1c1cc(F)cc(F)c1F (centres unmarked) [Compound 315, 1-(1H-Benzoimidazol-5-yl)-4-ethyl-3-hydroxy-5-(2,3,5-trifluoro-phenyl)-1,5-dihydro-pyrrol-2-one] | 1480 nM
CCCCCC1C(c2c[nH]c3ccccc23)=C(O)C(=O)N1CCCn1ccnc1 (centres unmarked) [Compound 124, 3-Hydroxy-1-(3-imidazol-1-yl-propyl)-4-(1H-indol-3-yl)-5-pentyl-1,5-dihydro-pyrrol-2-one] | 400 nM
CC(C)(C)C(=O)C1=C(O)C(=O)N(c2ccc3[nH]cnc3c2)C1c1ccc(-c2ccccn2)cc1 (centres unmarked) [Compound 401, 1-(1H-Benzoimidazol-5-yl)-4-(2,2-dimethyl-propionyl)-3-hydroxy-5-(4-pyridin-2-yl-phenyl)-1,5-dihydro-pyrrol-2-one] | 3010 nM
CC1=C(O)C(=O)N(CCCn2ccnc2)C1Cc1ccccc1 (centres unmarked) [Compound 41, 5-Benzyl-3-hydroxy-1-(3-imidazol-1-yl-propyl)-4-methyl-1,5-dihydro-pyrrol-2-one] | 1300 nM
CC(=O)C1=C(O)C(=O)N(c2ccc3[nH]cnc3c2)C1c1ccco1 (centres unmarked) [Compound 366, 4-Acetyl-1-(1H-benzoimidazol-5-yl)-5-furan-2-yl-3-hydroxy-1,5-dihydro-pyrrol-2-one] | 2380 nM
Cc1ccc(O)c(C2C(C(=O)C3CC3)=C(O)C(=O)N2c2ccc3[nH]cnc3c2)c1 (centres unmarked) [Compound 343, 1-(1H-Benzoimidazol-5-yl)-4-cyclopropanecarbonyl-3-hydroxy-5-(2-hydroxy-5-methyl-phenyl)-1,5-dihydro-pyrrol-2-one] | 3280 nM
CCCCCC1=C(O)C(=O)N(CCCn2ccnc2)C1c1ccccc1 (centres unmarked) [Compound 199, 3-Hydroxy-1-(3-imidazol-1-yl-propyl)-4-pentyl-5-phenyl-1,5-dihydro-pyrrol-2-one] | 40 nM
CC(C)/C=C/C1C(c2cccc(O)c2)=C(O)C(=O)N1CCCn1ccnc1 (centres unmarked) [Compound 10, 3-Hydroxy-4-(3-hydroxy-phenyl)-1-(3-imidazol-1-yl-propyl)-5-(3-methyl-but-1-enyl)-1,5-dihydro-pyrrol-2-one] | 5800 nM
CC1=C(O)C(=O)N(CCCn2ccnc2)C1/C=C/c1ccccc1 (centres unmarked) [Compound 33, 3-Hydroxy-1-(3-imidazol-1-yl-propyl)-4-methyl-5-(styryl)-1,5-dihydro-pyrrol-2-one] | 3100 nM
CCC1=C(O)C(=O)N(CCCn2ccnc2)C1C(F)(F)F (centres unmarked) [Compound 240, 4-Ethyl-3-hydroxy-1-(3-imidazol-1-yl-propyl)-5-trifluoromethyl-1,5-dihydro-pyrrol-2-one] | 40 nM
O=C1C(O)=C(c2ccc(O)cc2)C(Cc2ccccc2)N1CCCn1ccnc1 (centres unmarked) [Compound 169, 5-Benzyl-3-hydroxy-4-(4-hydroxy-phenyl)-1-(3-imidazol-1-yl-propyl)-1,5-dihydro-pyrrol-2-one] | 40 nM
COc1ccc(C2C(c3cccc(O)c3)=C(O)C(=O)N2CCCn2ccnc2)cc1 (centres unmarked) [Compound 13, 3-Hydroxy-4-(3-hydroxy-phenyl)-1-(3-imidazol-1-yl-propyl)-5-(4-methoxy-phenyl)-1,5-dihydro-pyrrol-2-one] | 2200 nM
O=C1C(O)=C(c2c[nH]c3ccccc23)C(c2ccc(O)cc2)N1CCCn1ccnc1 (centres unmarked) [Compound 145, 3-Hydroxy-5-(4-hydroxy-phenyl)-1-(3-imidazol-1-yl-propyl)-4-(1H-indol-3-yl)-1,5-dihydro-pyrrol-2-one] | 400 nM
O=C1C(O)=C(c2ccc(O)cc2)C(C(O)CO)N1CCCn1ccnc1 (centres unmarked) [Compound 152, 5-(1,2-Dihydroxy-ethyl)-3-hydroxy-4-(4-hydroxy-phenyl)-1-(3-imidazol-1-yl-propyl)-1,5-dihydro-pyrrol-2-one] | 400 nM
CC1=C(O)C(=O)N(CCCn2ccnc2)C1c1ccc2[nH]ccc2c1 (centres unmarked) [Compound 26, 3-Hydroxy-1-(3-imidazol-1-yl-propyl)-5-(1H-indol-5-yl)-4-methyl-1,5-dihydro-pyrrol-2-one] | 40 nM
CCCCCC(=O)C1=C(O)C(=O)N(c2ccc3[nH]cnc3c2)C1C1CCOC1 (centres unmarked) [Compound 274, 1-(1H-Benzoimidazol-5-yl)-4-hexanoyl-3-hydroxy-5-(tetrahydro-furan-3-yl)-1,5-dihydro-pyrrol-2-one] | 2470 nM
COc1ccc(C2C(c3c[nH]c4ccccc34)=C(O)C(=O)N2CCCn2ccnc2)cc1 (centres unmarked) [Compound 121, 3-Hydroxy-1-(3-imidazol-1-yl-propyl)-4-(1H-indol-3-yl)-5-(4-methoxy-phenyl)-1,5-dihydro-pyrrol-2-one] | 40 nM
O=C1C(O)=C(c2c[nH]c3ccccc23)C(c2c[nH]c3ccccc23)N1CCCn1ccnc1 (centres unmarked) [Compound 132, 3-Hydroxy-1-(3-imidazol-1-yl-propyl)-4,5-bis-(1H-indol-3-yl)-1,5-dihydro-pyrrol-2-one] | 400 nM
CCCC1C(c2ccc(O)cc2)=C(O)C(=O)N1CCCn1ccnc1 (centres unmarked) [Compound 150, 3-Hydroxy-4-(4-hydroxy-phenyl)-1-(3-imidazol-1-yl-propyl)-5-propyl-1,5-dihydro-pyrrol-2-one] | 40 nM
O=C(O)c1ccc(C2C(c3c[nH]c4ccccc34)=C(O)C(=O)N2c2ccc3[nH]cnc3c2)o1 (centres unmarked) [Compound 451, 5-[1-(1H-Benzoimidazol-5-yl)-4-hydroxy-3-(1H-indol-3-yl)-5-oxo-2,5-dihydro-1H-pyrrol-2-yl]-furan-2-carboxylic acid] | 2560 nM
CC1=C(O)C(=O)N(CCCn2ccnc2)C1c1ccccc1O (centres unmarked) [Compound 28, 3-Hydroxy-5-(2-hydroxy-phenyl)-1-(3-imidazol-1-yl-propyl)-4-methyl-1,5-dihydro-pyrrol-2-one] | 400 nM
CCCCCC1=C(O)C(=O)N(CCCn2ccnc2)C1/C=C/C(C)C (centres unmarked) [Compound 190, 3-Hydroxy-1-(3-imidazol-1-yl-propyl)-5-(3-methyl-but-1-enyl)-4-pentyl-1,5-dihydro-pyrrol-2-one] | 400 nM

Next, values leading:

IC50 | SMILES
3370 nM | CCC1=C(O)C(=O)N(c2ccc3[nH]cnc3c2)C1c1cc(C)c(C)o1 (centres unmarked) [Compound 340, 1-(1H-Benzoimidazol-5-yl)-5-(4,5-dimethyl-furan-2-yl)-4-ethyl-3-hydroxy-1,5-dihydro-pyrrol-2-one]
40 nM | CCCCCC1=C(O)C(=O)N(CCCn2ccnc2)C1C(F)(F)F (centres unmarked) [Compound 203, 3-Hydroxy-1-(3-imidazol-1-yl-propyl)-4-pentyl-5-trifluoromethyl-1,5-dihydro-pyrrol-2-one]
4 nM | O=C1C(O)=C(c2c[nH]c3ccccc23)C(c2ccc3nsnc3c2)N1c1ccc2[nH]cnc2c1 (centres unmarked) [Compound 457]
5800 nM | CCC/C=C/C1C(c2cccc(O)c2)=C(O)C(=O)N1CCCn1ccnc1 (centres unmarked) [Compound 6, 3-Hydroxy-4-(3-hydroxy-phenyl)-1-(3-imidazol-1-yl-propyl)-5-(pent-1-enyl)-1,5-dihydro-pyrrol-2-one]
1300 nM | CC1=C(O)C(=O)N(CCCn2ccnc2)C1c1cccc(O)c1 (centres unmarked) [Compound 53, 3-Hydroxy-5-(3-hydroxy-phenyl)-1-(3-imidazol-1-yl-propyl)-4-methyl-1,5-dihydro-pyrrol-2-one]
5800 nM | O=C1C(O)=C(c2ccc(O)cc2)C(C2CCOC2)N1c1ccc2[nH]cnc2c1 (centres unmarked) [Compound 279, 1-(1H-Benzoimidazol-5-yl)-3-hydroxy-4-(4-hydroxy-phenyl)-5-(tetrahydro-furan-3-yl)-1,5-dihydro-pyrrol-2-one]
7780 nM | CCCC(=O)C1=C(O)C(=O)N(c2ccc3[nH]cnc3c2)C1c1c[nH]cn1 (centres unmarked) [Compound 359, 1-(1H-Benzoimidazol-5-yl)-4-butyryl-3-hydroxy-5-(1H-imidazol-4-yl)-1,5-dihydro-pyrrol-2-one]
400 nM | O=C1C(O)=C(c2c[nH]c3ccccc23)C(C(O)CO)N1CCCn1ccnc1 (centres unmarked) [Compound 117, 5-(1,2-Dihydroxy-ethyl)-3-hydroxy-1-(3-imidazol-1-yl-propyl)-4-(1H-indol-3-yl)-1,5-dihydro-pyrrol-2-one]
400 nM | O=C1C(O)=C(c2c[nH]c3ccccc23)C(C2CC2)N1CCCn1ccnc1 (centres unmarked) [Compound 139, 5-Cyclopropyl-3-hydroxy-1-(3-imidazol-1-yl-propyl)-4-(1H-indol-3-yl)-1,5-dihydro-pyrrol-2-one]
1300 nM | CCC1=C(O)C(=O)N(CCCn2ccnc2)C1c1ccccc1F (centres unmarked) [Compound 250, 4-Ethyl-5-(2-fluoro-phenyl)-3-hydroxy-1-(3-imidazol-1-yl-propyl)-1,5-dihydro-pyrrol-2-one]
490 nM | CC(C)CC(=O)C1=C(O)C(=O)N(c2ccc3[nH]cnc3c2)C1C1CCOC1 (centres unmarked) [Compound 291, 1-(1H-Benzoimidazol-5-yl)-3-hydroxy-4-(3-methyl-butyryl)-5-(tetrahydro-furan-3-yl)-1,5-dihydro-pyrrol-2-one]
3100 nM | CC1=C(O)C(=O)N(CCCn2ccnc2)C1c1cccs1 (centres unmarked) [Compound 45, 3-Hydroxy-1-(3-imidazol-1-yl-propyl)-4-methyl-5-thiophen-2-yl-1,5-dihydro-pyrrol-2-one]
4000 nM | COc1ccc(C2C(C)=C(O)C(=O)N2CCCn2ccnc2)cc1 (centres unmarked) [Compound 27, 3-Hydroxy-1-(3-imidazol-1-yl-propyl)-5-(4-methoxy-phenyl)-4-methyl-1,5-dihydro-pyrrol-2-one]
4540 nM | O=C(O)CC1=C(O)C(=O)N(c2ccc3[nH]cnc3c2)C1c1c(F)ccc(Cl)c1F (centres unmarked) [Compound 358, [1-(1H-Benzoimidazol-5-yl)-2-(3-chloro-2,6-difluoro-phenyl)-4-hydroxy-5-oxo-2,5-dihydro-1H-pyrrol-3-yl]-acetic acid]
40 nM | CCC1=C(O)C(=O)N(CCCn2ccnc2)C1C(O)CO (centres unmarked) [Compound 225, 5-(1,2-Dihydroxy-ethyl)-4-ethyl-3-hydroxy-1-(3-imidazol-1-yl-propyl)-1,5-dihydro-pyrrol-2-one]
